Measurements taken from patent publication US20150307938A1, “METHOD TO IDENTIFY A NOVEL CLASS OF IMMUNOLOGIC ADJUVANTS” (Lancell, L.L.C., priority 2011, published 2015).

System: skin
Assay: Affymetrix microarray of skin, DBP-4 hr and analogs vs. untreated; gene selection by log-2 fold change, Wilcoxon, Kendall tau (Tables 8, 9)
Format: in vivo, mouse
Conditions: for Kendall: Kendall tau coefficient
[1] = DBP-4 hr vs. untreated, rank-sum p-value

CCCCOC(=O)c1ccccc1C(=O)OCCCC [DBP, dibutylphthalate]
Yes: Wilcoxon (2310016C08Rik NM_001190461_at, DBP-4 hr vs. untreated) | Wilcoxon (Adam8 NM_007403_at, DBP-4 hr vs. untreated) | Kendall (Adam8 NM_007403_at) | Wilcoxon (Atf3 NM_007498_at, DBP-4 hr vs. untreated) | Wilcoxon (Btg2 NM_007570_at, DBP-4 hr vs. untreated) | Kendall (Btg2 NM_007570_at) | Wilcoxon (Casp4 NM_007609_at, DBP-4 hr vs. untreated) | Wilcoxon (Cebpd NM_007679_at, DBP-4 hr vs. untreated) | Kendall (Csf2rb NM_007780_at) | Wilcoxon (Cxcl1 NM_008176_at, DBP-4 hr vs. untreated) | 1600029D21Rik (NM_029639_at) Wilcoxon (DBP-4 hr vs. untreated) | 2010002N04Rik (NM_134133_at) Wilcoxon (DBP-4 hr vs. untreated) | 2310016C08Rik (NM_023516_at) Wilcoxon (DBP-4 hr vs. untreated) | 1810011010Rik (NM_026931_at) Wilcoxon (DBP-4 hr vs. untreated) | Acot5 (NM_145444_at) Wilcoxon (DBP-4 hr vs. untreated) | Adamts4 (NM_172845_at) Wilcoxon (DBP-4 hr vs. untreated) | Angptl4 (NM_020581_at) Wilcoxon (DBP-4 hr vs. untreated) | Arc (NM_018790_at) Wilcoxon (DBP-4 hr vs. untreated) | Arid5a (NM_145996_at) Wilcoxon (DBP-4 hr vs. untreated) | Arid5a (NR_033310_at) Wilcoxon (DBP-4 hr vs. untreated) | Bcl3 (NM_033601_at) Wilcoxon (DBP-4 hr vs. untreated) | Ccl1 (NM_011329_at) Wilcoxon (DBP-4 hr vs. untreated) | Ccl2 (NM_011333_at) Wilcoxon (DBP-4 hr vs. untreated) | Ccl3 (NM_011337_at) Wilcoxon (DBP-4 hr vs. untreated) | Ccl7 (NM_013654_at) Wilcoxon (DBP-4 hr vs. untreated) | Ccl9 (NM_011338_at) Wilcoxon (DBP-4 hr vs. untreated) | Ccl12 (NM_011331_at) Wilcoxon (DBP-4 hr vs. untreated) | Ccl17 (NM_011332_at) Wilcoxon (DBP-4 hr vs. untreated) | Ccl20 (NM_016960_at) Wilcoxon (DBP-4 hr vs. untreated) | Cd86 (NM_019388_at) Wilcoxon (DBP-4 hr vs. untreated) | Cd207 (NM_144943_at) Wilcoxon (DBP-4 hr vs. untreated) | Clec4e (NM_019948_at) Wilcoxon (DBP-4 hr vs. untreated) | Clec7a (NM_020008_at) Wilcoxon (DBP-4 hr vs. untreated) | Clec4d (NM_010819_at) Wilcoxon (DBP-4 hr vs. untreated) | Crem (NM_013498_at) Wilcoxon (DBP-4 hr vs. untreated) | Cxcl16 (NM_023158_at) Wilcoxon (DBP-4 hr vs. untreated) | Cyr61 (NM_010516_at) Wilcoxon (DBP-4 hr vs. untreated) | Dusp6 (NM_026268_at) Wilcoxon (DBP-4 hr vs. untreated) | Epgn (NM_053087_at) Wilcoxon (DBP-4 hr vs. untreated) | Gzmb (NM_013542_at) Wilcoxon (DBP-4 hr vs. untreated) | Havcr2 (NM_134250_at) Wilcoxon (DBP-4 hr vs. untreated) | Ier3 (NM_133662_at) Wilcoxon (DBP-4 hr vs. untreated) | Ifi202b (NM_011940_at) Wilcoxon (DBP-4 hr vs. untreated) | Il1f6 (NM_019450_at) Wilcoxon (DBP-4 hr vs. untreated) | Il6 (NM_031168_at) Wilcoxon (DBP-4 hr vs. untreated) | Il20 (NM_021380_at) Wilcoxon (DBP-4 hr vs. untreated) | Klk6 (NM_011177_at) Wilcoxon (DBP-4 hr vs. untreated) | Krt25 (NM_133730_at) Wilcoxon (DBP-4 hr vs. untreated) | Krt27 (NM_010666_at) Wilcoxon (DBP-4 hr vs. untreated) | Krt71 (NM_019956_at) Wilcoxon (DBP-4 hr vs. untreated) | Krtap4-16 (NM_001013823_at) Wilcoxon (DBP-4 hr vs. untreated) | LOC100044068 (XM_001473873_at) Wilcoxon (DBP-4 hr vs. untreated) | LOC100504977 (XM_003085794_at) Wilcoxon (DBP-4 hr vs. untreated) | Maff (NM_010755_at) Wilcoxon (DBP-4 hr vs. untreated) | Mcoln2 (NM_026656_at) Wilcoxon (DBP-4 hr vs. untreated) | NA (AFFX-18SRNAMur/X00686_3_at) Wilcoxon (DBP-4 hr vs. untreated) | NA (AFFX-18SRNAMur/X00686_5_at) Wilcoxon (DBP-4 hr vs. untreated) | NA (AFFX-18SRNAMur/X00686_M_at) Wilcoxon (DBP-4 hr vs. untreated) | NA (AFFX-BioB-3_at) Wilcoxon (DBP-4 hr vs. untreated) | NA (AFFX-BioB-5_at) Wilcoxon (DBP-4 hr vs. untreated) | NA (AFFX-BioB-M_at) Wilcoxon (DBP-4 hr vs. untreated) | NA (AFFX-BioC-3_at) Wilcoxon (DBP-4 hr vs. untreated) | NA (AFFX-BioC-5_at) Wilcoxon (DBP-4 hr vs. untreated) | NA (AFFX-BioDn-3_at) Wilcoxon (DBP-4 hr vs. untreated) | NA (AFFX-BioDn-5_at) Wilcoxon (DBP-4 hr vs. untreated) | NA (AFFX-ThrX-5_at) Wilcoxon (DBP-4 hr vs. untreated) | Nfil3 (NM_017373_at) Wilcoxon (DBP-4 hr vs. untreated) | Nfkbiz (NM_030612_at) Wilcoxon (DBP-4 hr vs. untreated) | Nr4a2 (NM_013613_at) Wilcoxon (DBP-4 hr vs. untreated) | Pde4b (NM_019840_at) Wilcoxon (DBP-4 hr vs. untreated) | Pdk4 (NM_013743_at) Wilcoxon (DBP-4 hr vs. untreated) | Plek (NM_019549_at) Wilcoxon (DBP-4 hr vs. untreated) | Pmaip1 (NM_021451_at) Wilcoxon (DBP-4 hr vs. untreated) | Prss22 (NM_133731_at) Wilcoxon (DBP-4 hr vs. untreated) | Pyy (NM_145435_at) Wilcoxon (DBP-4 hr vs. untreated) | Rab20 (NM_011227_at) Wilcoxon (DBP-4 hr vs. untreated) | Rgs1 (NM_015811_at) Wilcoxon (DBP-4 hr vs. untreated) | Saa3 (NM_011315_at) Wilcoxon (DBP-4 hr vs. untreated) | Slc5a1 (NM_019810_at) Wilcoxon (DBP-4 hr vs. untreated) | Slc7a5 (NM_011404_at) Wilcoxon (DBP-4 hr vs. untreated) | Slc34a2 (NM_011402_at) Wilcoxon (DBP-4 hr vs. untreated) | Slc39a8 (NM_026228_at) Wilcoxon (DBP-4 hr vs. untreated) | Slfn2 (NM_011408_at) Wilcoxon (DBP-4 hr vs. untreated) | Slfn4 (NM_011410_at) Wilcoxon (DBP-4 hr vs. untreated) | Slpi (NM_011414_at) Wilcoxon (DBP-4 hr vs. untreated) | Smox (NM_145533_at) Wilcoxon (DBP-4 hr vs. untreated) | Stfa3 (NM_025288_at) Wilcoxon (DBP-4 hr vs. untreated) | Timp1 (NM_011593_at) Wilcoxon (DBP-4 hr vs. untreated) | Tlr2 (NM_011905_at) Wilcoxon (DBP-4 hr vs. untreated) | Tnf (NM_013693_at) Wilcoxon (DBP-4 hr vs. untreated) | Tnfrsf12a (NM_013749_at) Wilcoxon (DBP-4 hr vs. untreated) | Tslp (NM_021367_at) Wilcoxon (DBP-4 hr vs. untreated) | Tslp (NR_033206_at) Wilcoxon (DBP-4 hr vs. untreated) | Tubb6 (NM_026473_at) Wilcoxon (DBP-4 hr vs. untreated) | Zc3h12a (NM_153159_at) Wilcoxon (DBP-4 hr vs. untreated) | Zfp36 (NM_011756_at) Wilcoxon (DBP-4 hr vs. untreated) | 1110032A04Rik NM_133675_at Wilcoxon [1] | 2610528A11Rik XR_105647_at Wilcoxon [1] | 1500015010Rik NM_024283_at Wilcoxon [1] | 3110079015Rik NM_028473_at Wilcoxon [1] | A2m NM_175628_at Wilcoxon [1] | AY026312 NM_133359_at Wilcoxon [1] | Actn2 NM_033268_at Wilcoxon [1] | Akr1c14 NM_134072_at Wilcoxon [1] | Aox4 NM_023631_at Wilcoxon [1] | Asb5 NM_029569_at Wilcoxon [1] | Ccl8 NM_021443_at Wilcoxon [1] | Ccl24 NM_019577_at Wilcoxon [1] | Cd209d NM_130904_at Wilcoxon [1] | Ckmt2 NM_198415_at Wilcoxon [1] | Cldn8 NM_018778_at Wilcoxon [1] | Clec4n NM_020001_at Wilcoxon [1] | Cmya5 NM_023821_at Wilcoxon [1] | Comp NM_016685_at Wilcoxon [1] | Corin NM_016869_at Wilcoxon [1] | Crispld1 NM_031402_at Wilcoxon [1] | Cxcl10 NM_021274_at Wilcoxon [1] | Cxcr6 NM_030712_at Wilcoxon [1] | Dbp NM_016974_at Wilcoxon [1] | Ear5 NM_019398_at Wilcoxon [1] | Gm10228 XM_001474297_at Wilcoxon [1] | Gm10228 XM_003086004_at Wilcoxon [1]
No: Kendall (2310016C08Rik NM_001190461_at) | Kendall (Atf3 NM_007498_at) | Wilcoxon (Birc3 NM_007464_at, DBP-4 hr vs. untreated) | Kendall (Birc3 NM_007464_at) | Kendall (Casp4 NM_007609_at) | Wilcoxon (Cd44 NM_001039150_at, DBP-4 hr vs. untreated) | Kendall (Cd44 NM_001039150_at) | Wilcoxon (Cd44 NM_001039151_at, DBP-4 hr vs. untreated) | Kendall (Cd44 NM_001039151_at) | Kendall (Cebpd NM_007679_at) | Wilcoxon (Csf2rb NM_007780_at, DBP-4 hr vs. untreated) | Kendall (Cxcl1 NM_008176_at) | Abcc3 (NM_029600_at) Wilcoxon (DBP-4 hr vs. untreated) | Akap12 (NM_031185_at) Wilcoxon (DBP-4 hr vs. untreated) | Bcar3 (NM_013867_at) Wilcoxon (DBP-4 hr vs. untreated) | Bhlhe40 (NM_011498_at) Wilcoxon (DBP-4 hr vs. untreated) | Calcb (NM_054084_at) Wilcoxon (DBP-4 hr vs. untreated) | Clic4 (NM_013885_at) Wilcoxon (DBP-4 hr vs. untreated) | Cytip (NM_139200_at) Wilcoxon (DBP-4 hr vs. untreated) | Dusp7 (NM_153459_at) Wilcoxon (DBP-4 hr vs. untreated) | Ier2 (NM_010499_at) Wilcoxon (DBP-4 hr vs. untreated) | Jdp2 (NM_030887_at) Wilcoxon (DBP-4 hr vs. untreated) | Jun (NM_010591_at) Wilcoxon (DBP-4 hr vs. untreated) | Klrb1b (NM_030599_at) Wilcoxon (DBP-4 hr vs. untreated) | Krt35 (NM_016880_at) Wilcoxon (DBP-4 hr vs. untreated) | Map3k6 (NM_016693_at) Wilcoxon (DBP-4 hr vs. untreated) | Mt1 (NM_013602_at) Wilcoxon (DBP-4 hr vs. untreated) | Nfkbia (NM_010907_at) Wilcoxon (DBP-4 hr vs. untreated) | Otud7a (NM_130880_at) Wilcoxon (DBP-4 hr vs. untreated) | Plaur (NM_011113_at) Wilcoxon (DBP-4 hr vs. untreated) | Plscr1 (NM_011636_at) Wilcoxon (DBP-4 hr vs. untreated) | Ptges (NM_022415_at) Wilcoxon (DBP-4 hr vs. untreated) | Ramp3 (NM_019511_at) Wilcoxon (DBP-4 hr vs. untreated) | Rnf19b (NM_029219_at) Wilcoxon (DBP-4 hr vs. untreated) | Slc10a6 (NM_029415_at) Wilcoxon (DBP-4 hr vs. untreated) | Slc15a3 (NM_023044_at) Wilcoxon (DBP-4 hr vs. untreated) | Slc25a25 (NM_146118_at) Wilcoxon (DBP-4 hr vs. untreated) | Uap1 (NM_133806_at) Wilcoxon (DBP-4 hr vs. untreated) | Zfp593 (NM_024215_at) Wilcoxon (DBP-4 hr vs. untreated) | 2510002D24Rik NM_001033164_at Wilcoxon [1] | 2510009E07Rik NM_001001881_at Wilcoxon [1] | Aldh7a1 NM_001127338_at Wilcoxon [1] | Atp2a2 NM_001110140_at Wilcoxon [1] | Atp13a3 NM_001128094_at Wilcoxon [1] | Atp13a3 NM_001128096_at Wilcoxon [1] | Bcr NM_001081412_at Wilcoxon [1] | Camk2g NM_001039138_at Wilcoxon [1] | Camk2g NM_001039139_at Wilcoxon [1] | Cyth1 NM_001112699_at Wilcoxon [1] | Cyth1 NM_001112700_at Wilcoxon [1] | Deptor NM_001037937_at Wilcoxon [1] | Dlgap4 NM_001042487_at Wilcoxon [1] | Dlgap4 NM_001042488_at Wilcoxon [1] | Fam134b NM_001034851_at Wilcoxon [1] | Gcdh NM_001044744_at Wilcoxon [1]
